# Test system: IL-1 released by LPS induced peripheral blood mononuclear cells (PBMCs)
# Test: Quantity of IL-1 released by LPS induced PBMCs (ELISA)
# Assay type: cell-based
# Settings: LPS 20 ng/ml
# Protocol: Experiments were conducted to evaluate the effect of particular phytochemical compositions provided by the present disclosure on quantity of IL-1 released by specified cells found within a body of a living organism. Cells used for the experiment described in this example are LPS induced peripheral blood mononuclear cells (PBMCs). It is understood by a person of ordinary skill in the art that the PBMCs may be substituted for other immune cells found within the body. It is also understood by a person having ordinary skill in the art that other inducing substances or chemicals besides LPS, for example viral antigens, may also be used for inducing the PBMCs.
# To conduct the experiments of example two, PBMCs were isolated and prepared using isolation techniques or methods known to a person of ordinary skill in the art. An exemplary method or technique is the differential density gradient centrifugation technique, the steps or process steps of which are known to a person of ordinary skill in the art. In addition, LPS can be obtained from a commercial source, for example Sigma-Aldrich Co.
# The PBMCs are cultured in 10% fetal calf serum in RPMI1640 medium. Seven cultures of PBMCs, i.e. culture 1 to culture 7, were prepared. The contents of each of cultures 1 to 7 are as follows: • (i) Culture 1: First control culture. Includes a predetermined volume of PBMCs (1×10^5 PBMCs/culture); • (ii) Culture 2: Second control culture. […]
# After a predetermined time period, quantity of IL-1 in each of cultures 1 to 7 was quantified using the ELISA technique (e.g., Biotrak Easy ELISA Aersham). The quantity of IL-1 detected by the ELISA technique in each of cultures 1 to 7 reflects the quantity of IL-1 released by the PBMCs of that culture.
smiles,measurement,setting,value
c1cc2c(cc1[C@H]1OC[C@H]3[C@@H]1CO[C@@H]3c1ccc3c(c1)OCO3)OCO2 [sesamin],decrease in quantity of IL-1,"0.1 uM sesamin (culture 3), compared to control culture 1, 24 hours",approximately 5%
same,decrease in quantity of IL-1,"0.5 uM sesamin (culture 4), compared to control culture 1, 24 hours",approximately 5%
same,decrease in quantity of IL-1,"10 uM sesamin (culture 7), compared to control culture 2, 24 hours",approximately 35%
